Each molecule was assayed against T1, MAGL protein (Homo sapiens, UniProt Q99685) (assay: 2-AG assay: MAGL inhibitory activity by hydrolysis of 2-arachidonoylglycerol to arachidonic acid, followed by mass spectrometry). Details: 8 μM 2-arachidonoylglycerol, 15 min preincubation, 30 min reaction at RT, RapidFire MS readout.
T1 sequence (Q99685 1-303): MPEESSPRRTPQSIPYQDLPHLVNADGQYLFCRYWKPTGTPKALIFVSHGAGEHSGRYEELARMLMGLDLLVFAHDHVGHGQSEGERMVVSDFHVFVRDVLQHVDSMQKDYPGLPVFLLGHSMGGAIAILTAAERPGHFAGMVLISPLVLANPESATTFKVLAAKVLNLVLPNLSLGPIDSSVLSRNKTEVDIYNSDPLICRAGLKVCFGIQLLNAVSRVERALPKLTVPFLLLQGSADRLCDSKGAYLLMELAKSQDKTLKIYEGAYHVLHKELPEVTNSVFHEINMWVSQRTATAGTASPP
Type: biochemical
Procedure, shortened: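 Activity was measured by RapidFire SPE–triple-quad MS as the ratio of arachidonic acid to d8-arachidonic acid after 2-AG hydrolysis (8 μM substrate, 30 min, RT, acetonitrile quench). Compounds, tested from 12.5 μM down to […], were first preincubated 15 min with MAGL in TRIS/EDTA/Tween-20 buffer containing 2.5% DMSO.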

Row | SMILES | IC50 [nM]
1 | CS(=O)(=O)c1ccccc1-c1ccc(C2CN(C(=O)N3CC4(CC(c5nc(C6(O)CC6)n[nH]5)C4)C3)C2)cc1 [Example 781, [6-[3-(1-hydroxycyclopropyl)-1H-1,2,4-triazol-5-yl]-2-azaspiro[3.3]heptan-2-yl]-[3-[4-(2-mesylphenyl)phenyl]azetidin-1-yl]methanone] | 0.93
2 | O=C(N1CC(c2cnc(N3CCC(C(F)(F)F)C3)nc2)C1)N1CC2(CC(c3nnc(C4CC4)[nH]3)C2)C1 (stereo not shown) [compound 264] | 2.27
3 | CC(C)(Oc1ccc(C2CN(C(=O)N3CC4(CC(c5nnc(C6CC6)[nH]5)C4)C3)C2)cc1)C(F)(F)F [compound 366] | 0.08
4 | O=C(N1CC(c2ccc(C3(C(F)(F)F)CC3)nn2)C1)N1CC2(CC(c3nnc(C4CC4)[nH]3)C2)C1 [compound 234] | 139
5 | O=C(N1CC2(CC(c3nnc(C4CC4)[nH]3)C2)C1)N1CC2(CN(Cc3ccc(S(=O)(=O)C(F)(F)F)cc3)C2)C1 [compound 86] | 0.92
6 | CS(=O)(=O)c1cc(C(F)(F)F)ccc1C1CC2(C1)CN(C(=O)N1CC3(CC(c4nnc(C5CC5)[nH]4)C3)C1)C2 [compound 803] | 1.39
7 | O=C(O)c1ccccc1-c1ccc(C2CN(C(=O)N3CC4(CC(c5nnc(C6CC6)[nH]5)C4)C3)C2)cc1 [Example 390, 2-[4-[1-[6-(5-cyclopropyl-4H-1,2,4-triazol-3-yl)-2-azaspiro[3.3]heptane-2-carbonyl]azetidin-3-yl]phenyl]benzoic Acid] | 1.06
8 | O=C(c1ccc(-c2ccccn2)s1)N1CCN(C(=O)N2CC3(CC(c4nnc(C5CC5)[nH]4)C3)C2)CC1 [Example 870, [4-[6-(5-cyclopropyl-4H-1,2,4-triazol-3-yl)-2-azaspiro[3.3]heptane-2-carbonyl]piperazino]-[5-(2-pyridyl)-2-thienyl]methanone] | 821
9 | O=C(N1CC2(CCC(Cc3ccc(F)cn3)CC2)C1)N1CC2(CC(c3nnc(C4(O)CC4)[nH]3)C2)C1 [compound 145] | 12.6
10 | O=C(N1CC2(CC(c3nc(C4CC4)n[nH]3)C2)C1)N1CC2(CN(Cc3ccc(S(=O)(=O)C(F)(F)F)cc3F)C2)C1 [compound 554] | 0.56
11 | O=C(N1CC2(CC(Oc3ncc(F)cc3Cl)C2)C1)N1CC2(CC(c3nc(C4CC4)n[nH]3)C2)C1 [compound 622] | 0.63
12 | O=C(N1CC(C23CC(c4cccc(OC(F)(F)F)c4)(C2)C3)C1)N1CC2(CC(c3nc(C4(O)CC4)n[nH]3)C2)C1 [compound 529] | 0.31
13 | O=C(N1CC(Oc2cnc(Cl)c(C3CC3)c2)C1)N1CC2(CC(c3nnc(C4CC4)[nH]3)C2)C1 [compound 328] | 35.4
14 | O=C(N1CC(OCc2ccc(F)cc2Cl)C1)N1CC2(CC(c3nnc(C4CC4)[nH]3)C2)C1 [compound 320] | 8.28
15 | CC(C)(C)Cc1nnc(C23CC(C4CCN(C(=O)N5CC6(CC(c7nc(C8CC8)n[nH]7)C6)C5)CC4)(C2)C3)o1 [compound 439] | 4.22
16 | O=C(N1CC2(CC(Cn3cc(OC(F)F)ccc3=O)C2)C1)N1CC2(CC(c3nc(C4CC4)n[nH]3)C2)C1 [compound 724] | 3.8
17 | CS(=O)(=O)c1cnn(CC2CC3(C2)CN(C(=O)N2CC4(CC(c5nc(C6CC6)n[nH]5)C4)C2)C3)c1 [compound 953] | 11.2
18 | O=C(N1CC(c2ccc(N3CC4(CCCO4)C3)nc2)C1)N1CC2(CC(c3nnc(C4CC4)[nH]3)C2)C1 [compound 293] | 11.1
19 | O=C(N1CC(c2ccc(C3(C(F)(F)F)CC3)cn2)C1)N1CC2(CC(c3nnc(C4CC4)[nH]3)C2)C1 [compound 236] | 4.52
20 | O=C(N1CC2(CC(c3nnc(C4CC4)[nH]3)C2)C1)N1CC2(C1)CN(S(=O)(=O)c1ccc(OC(F)(F)F)cc1)C2 [compound 91] | 4.05
21 | O=C(N1CC(C23CC(c4nnc(C5CC5)o4)(C2)C3)C1)N1CC2(CC(c3nnc(C4CC4)[nH]3)C2)C1 [compound 345] | 9.15
22 | O=C(N1CC2(CC(c3nc(C4CC4)n[nH]3)C2)C1)N1CC2(CN(Cc3ccn(CC(F)(F)F)c(=O)c3)C2)C1 [compound 426] | 274
23 | O=C(N1CC(c2cnc(N3CC[C@H](C(F)(F)F)C3)nc2)C1)N1CC2(CC(c3nc(C4CC4)n[nH]3)C2)C1 [compound 708] | 2.63
24 | CC(C)(C(=O)O)c1cccc(OC2CN(C(=O)N3CC4(CC(c5nnc(C6CC6)[nH]5)C4)C3)C2)c1 [Example 387, 2-[3-[1-[6-(5-cyclopropyl-4H-1,2,4-triazol-3-yl)-2-azaspiro[3.3]heptane-2-carbonyl]azetidin-3-yl]oxyphenyl]-2-methyl-propanoic Acid] | 79.6
25 | O=C(N1CC2(CC(c3nnc(C4CC4)[nH]3)C2)C1)N1CC2(CN(Cc3ccc(F)cc3F)C2)C1 [compound 156] | 4.08
26 | O=C(N1CC(c2ccc(-n3cnc(C4CC4)n3)cc2)C1)N1CC2(CC(c3nnc(C4CC4)[nH]3)C2)C1 [compound 934] | 4.44
27 | O=C(N1CC2(CC(Oc3ccc(Cl)cn3)C2)C1)N1CC2(CC(c3nc(C4CC4)n[nH]3)C2)C1 [compound 619] | 0.79
28 | NC(=O)C(c1ccc(F)cc1)C1CCN(C(=O)N2CC3(CC(c4nnc(C5CC5)[nH]4)C3)C2)CC1 (stereo not shown) [compound 362] | 106
29 | N#Cc1ccc(CC2CC3(C2)CN(C(=O)N2CC4(CC(c5nc(C6COC6)n[nH]5)C4)C2)C3)c(F)c1 [compound 797] | 9.31
30 | O=C(N1CC2(CC(c3nc(C4CC4)n[nH]3)C2)C1)N1CC2(CN(Cc3cnn(C(F)F)c3)C2)C1 [compound 628] | 149

The remaining lines, values ahead:

Row | IC50 [nM] | SMILES
31 | 280 | O=C(N1CCC(C23CC(c4nnc(C5(C(F)(F)F)CC5)o4)(C2)C3)CC1)N1CC2(CC(c3nc(C4(O)CC4)n[nH]3)C2)C1 [compound 706]
32 | 0.59 | O=C(N1CC2(CC(Cc3cc(C(F)(F)F)n[nH]3)C2)C1)N1CC2(CC(c3nc(C4(O)CC4)n[nH]3)C2)C1 [compound 589]
33 | 1.27 | Cn1ncc(C(F)(F)F)c1CC1CC2(C1)CN(C(=O)N1CC3(CC(c4nc(C5(O)CC5)n[nH]4)C3)C1)C2 [compound 777]
34 | 1 | O=C(N1CC2(CC(c3nc(C4(O)CC4)n[nH]3)C2)C1)N1CC2(CC[C@H](Cc3ccc(S(=O)(=O)C(F)(F)F)cc3)C2)C1 [compound 653]
35 | 5.86 | O=C(N1CC2(CC(c3cnc(C(F)(F)F)cn3)C2)C1)N1CC2(CC(c3nnc(C4CC4)[nH]3)C2)C1 [compound 67]
36 | 2.83 | O=C(N1CC2(CC(Cn3ccc(C(F)(F)F)cc3=O)C2)C1)N1CC2(CC(c3nc(C4CC4)n[nH]3)C2)C1 [compound 766]
37 | 7.1 | O=C(N1CC2(CC(Cc3cc(F)cc(C(F)(F)F)c3)C2)C1)N1CC2(CC(c3nc(C4CC(F)(F)C4)n[nH]3)C2)C1 [compound 455]
38 | 2.22 | Cn1cc(OC2CC3(C2)CN(C(=O)N2CC4(CC(c5nc(C6CC6)n[nH]5)C4)C2)C3)c(C(F)(F)F)n1 [compound 425]
39 | 1.36 | O=C(N1CC(C23CC(Nc4cnc(C(F)(F)F)cn4)(C2)C3)C1)N1CC2(CC(c3nc(C4(O)CC4)n[nH]3)C2)C1 [compound 593]
40 | 38 | O=C(N1CC2(CC(Oc3cnc(C(F)(F)F)cn3)C2)C1)N1CC2(CC(c3nnc(C4(O)CC4)[nH]3)C2)C1 [compound 76]
41 | 0.6 | O=C(N1CC2(CC(Cc3ccc(C(F)(F)F)cn3)C2)C1)N1CC2(CC(c3nnc(C4(O)CC4)[nH]3)C2)C1 [compound 111]
42 | 0.24 | O=C(N1CC2(CC(Cc3nsc(C(F)(F)F)n3)C2)C1)N1CC2(CC(c3nc(C4CC4)n[nH]3)C2)C1 [compound 450]
43 | 1.17 | O=C(N1CC2(CC(Cn3nccc3C(F)(F)F)C2)C1)N1CC2(CC(c3nc(C4(O)CC4)n[nH]3)C2)C1 [compound 796]
44 | 0.69 | O=C(N1CC2(CC(Cc3cnc(C(F)(F)F)cn3)C2)C1)N1CC2(CC(c3nnc(C4CC4)[nH]3)C2)C1 [Example 3]
45 | 5.36 | O=C(N1CC2(CC(OCC3(C(F)(F)F)CC3)C2)C1)N1CC2(CC(c3nnc(C4CC4)[nH]3)C2)C1 [compound 68]
46 | 2.37 | O=C(N1CC2(CC(Cc3ccc(F)cc3F)C2)C1)N1CC2(CC(c3nc(C4COC4)n[nH]3)C2)C1 [compound 835]
47 | 904 | O=C(N1CC(C23CC(c4nnc(C5(C(F)(F)F)CC5)o4)(C2)C3)C1)N1CC2(CC(c3nc(C4(O)CC4)n[nH]3)C2)C1 [compound 573]
48 | 1.98 | O=C(N1CC2(CC(Cc3nnc(C4(C(F)(F)F)CC4)o3)C2)C1)N1CC2(CC(c3nc(C4(F)CC4)n[nH]3)C2)C1 [compound 792]
49 | 13.9 | Cn1ncc(CC2CC3(C2)CN(C(=O)N2CC4(CC(c5nc(C6CC(F)(F)C6)n[nH]5)C4)C2)C3)c1C(F)(F)F [compound 530]
50 | 8.32 | O=C(N1CC2(CC(c3nc(C4CC4)n[nH]3)C2)C1)N1CC2(CN(Cc3cc(C(F)(F)F)on3)C2)C1 [compound 609]
51 | 0.59 | O=C(N1CC2(CC(Cc3ccc4nc(C(F)(F)F)cn4c3)C2)C1)N1CC2(CC(c3nc(C4CC4)n[nH]3)C2)C1 [compound 990]
52 | 20.3 | O=C(N1CC(c2ccc(C3(C(F)(F)F)CC3)cn2)C1)N1CC2(CC(c3nc(C4(O)CC4)n[nH]3)C2)C1 [compound 471]
53 | 1.26 | N=S(=O)(c1ccc(CC2CC3(C2)CN(C(=O)N2CC4(CC(c5nc(C6CC6)n[nH]5)C4)C2)C3)nc1)C(F)(F)F (stereo not shown) [compound 739]
54 | 8.06 | O=C(N1CC2(CC(Cc3nc(C(F)(F)F)co3)C2)C1)N1CC2(CC(c3nnc(C4(O)CC4)[nH]3)C2)C1 [compound 62]
55 | 8.2 | O=C(N1CC2(CC(c3nc(C4(O)CC4)n[nH]3)C2)C1)N1CC2(CC(C(F)(F)c3ccc(C(F)(F)F)nn3)C2)C1 [compound 448]

Reference: US20250099448A1, “HETEROCYCLIC COMPOUNDS” (Hoffmann-La Roche Inc., priority 2022, published 2025)
